Data on 2 compounds can be found in patent US4820712A, “Sparsomycin (SC-RS) compounds having antitumor activity, a process for their preparation and pharmaceutical compositions containing sparsomycin (SC-RS) compounds” (priority 1986, dated 1989).

One data set has as its system Leukemia L 1210 cells. Briefly: in vitro clonogenic L1210 assay (inhibition of colony formation in soft agar). The data set is classed as cell-based. Particulars: Mus musculus, L1210, 72 h, read-out: ID50 (dose giving 50% inhibition of L1210 colony formation).
Data set [1] has as its system ribosomes from E. coli MRE600 (peptidyl transferase activity). Briefly: puromycin reaction, E. coli ribosomes. It counts as biochemical. Particulars: 50% inhibition relative to control; read-out: ED50 Puromycin reaction E. coli. How it is done:
(§1) The peptidyl transferase activity was measured by the polyphenylalanine synthesis assay (Nirenberg and Matthei, Proc. Natl. Acad. Sci. USA 47 (1961) 1588), the fragment reaction (Monro, Methods Enzymol. 20 (1971) 472) and the puromycin reaction. In all the in vitro tests, i.e. polyPhe synthesis, fragment reaction and puromycin reaction, ribosomes from E. coli MRE600 and S. cerevisiae Y166 were used. The reaction mixture for polyphenylalanine synthesis was slightly different for E. coli and S. cerevisiae.
The puromycin reaction was carried out in 25 μl of 30 mM KCl, 50 mM NH4 Cl, 30 mM Tris-HCl pH 7.8, 20 mM MgCl2, 10 pmol of ribosomes, 100 μg/ml of poly(U) and 15 pmol of N-acetyl-[^3 H]Phe-tRNA. The reaction mixture was incubated for 30 min at 37° C. and then 1 μl of 20 mM puromycin was added and incubation was followed for 5 more min. To the samples 250 μl of 0.1M sodium carbonate and 0.7 ml of ethyl acetate were added, shaken for 1 min, centrifuged to separate the phases and 0.5 ml of the upper organic phase taken for estimating the radioactivity.
(§2) The concentration of sparsomycin or an analog giving 50% inhibition of the protein synthesis relative to the control is given in ED50.

The next data set in a line: acute toxicity LD50. It counts as in vivo, mice. Conditions: for LD50: mouse, in vivo, ip, daily x9 injections, mice, 95% confidence interval given, read-out: LD 50 in mg/kg/inj i.p. in mice. The text has this: It appears therefrom that ala-sparsomycin is about 9× less toxic than sparsomycin.
In the next data set the test system is E. coli MRE600. Briefly: inhibition of bacterial growth. It counts as cell-based. The method, then:
Inhibition of bacterial growth was tested in solid as well as in liquid medium. For the test on agar plates, petri dishes containing 15 ml of LB medium (10 g/l bactotryptone, 5 g/l yeast extract and 5 g/l NaCl) were covered with 5 ml of the same medium--kept melted at 40° C.--containing 40 μl of a culture of the required bacterium at approximately an A550 of 2. After solidification, 3 mm filter disks containing 4 μl of a 10 mM solution of the antibiotic in 50EtOH/DMSO were placed on the surface of the agar and the plates were incubated at 37° C. for 24 h. For the test in liquid medium, E. coli MRE600 was grown in LB medium supplemented with 0.2% of glucose to exponential phase (A560 =0.1) and distributed in 1 ml aliquots in tubes containing the required amount of antibiotic. The tubes were incubated at 37° C. for 4 h, subsequently diluted with 3 ml of 0.1% of sodium azide to stop growth and the absorption at 550 nm was measured. The absorption of the medium without addition of antibiotic was considered as 100% growth.

The target of data set [2] is ribosomes from S. cerevisiae Y166 (peptidyl transferase activity). The data set is described as follows: polyphenylalanine synthesis assay, S. cerevisiae ribosomes. Conditions: concentration giving 50% inhibition relative to control; 30° C., 30 min; read-out: ED50 polyPhe synthesis S. cerevisiae. It counts as biochemical. How it is done:
as §1
S. cerevisiae: The test was carried out as indicated above for E. coli. The phosphoenol pyruvate and pyruvate kinase were, however, replaced by creatine phosphate (20 mM) and creatine phosphokinase (50 μg/ml). The incubation was performed at 30° C. for 30 min and the samples were processed as described above. Under these conditions the control samples polymerized 5-14 and 3-8 molecules of phenylalanine per ribosome derived from E. coli and S. cerevisiae, respectively. Ribosomes and supernatant factors from E. coli and S. cerevisiae were prepared according to standard procedures, described by Staehelin and Maglott, Methods Enzymol. 20 (1971) 449, and by Sanchez-Madrid et al, Eur. J. Biochem. 98 (1979) 409.
as §2

Another data set relates to L1210 leukemia. Briefly: in vivo antitumor assay, L1210 leukemia. Further details: species or system CDF1 mice. The method, then:
The antitumor activity of the present compounds has also been investigated by in vivo assays. In the assays, mice were treated for nine days in succession, starting at 24 hours after the time of tumor implant.
The results are shown in tables 4, 5 and 6 and represent the number of tumor-bearing mice surviving after administration of optimal doses of the test compound, expressed as a treatment/control (T/C×100%) ratio. In the tables, information is provided with respect to the sex, dose, weight loss of treated animals compared to control animals, and the number of survivors in groups of 6 mice.

Data set [3] has as its system ribosomes from E. coli MRE600 (peptidyl transferase activity). Briefly: fragment reaction, E. coli ribosomes. It counts as biochemical. Particulars: 50% inhibition relative to control; 0° C., 30 min, 33% methanol; read-out: ED50 Fragment reaction E. coli. How it is done:
as §1
(§3) The fragment reaction was carried out in 150 μl of 33 mM Tris-HCl pH 7.4, 270 mM KCl, 13 mM magnesium acetate containing 1 mg/ml of ribosomes, 2 mM puromycin, 1 pmol of N-acetyl-[^3 H]Leu-ACCAC(U), the required concentration of sparsomycin or its analogue and 33% methanol. The reaction was initiated by the addition of the alcohol and allowed to proceed at 0° C. for 30 min, and was then stopped by the addition of 100 μl of 0.3M sodium acetate pH 5.5 saturated with MgSO4. The samples were extracted with 1.5 ml of ethyl acetate and 1 ml of the organic phase was checked for radioactivity. The 3' terminal pentanucleotide N-acetyl-[^3 H]Leu-ACCAC(U) was prepared from N-acetyl-[^3 H]Leu-tRNA by ribonuclease T1 as described by Monro.
as §2

The target in data set [4] is ribosomes from S. cerevisiae Y166 (peptidyl transferase activity). Briefly: fragment reaction, S. cerevisiae ribosomes. The data set is classed as biochemical. Conditions: 50% inhibition relative to control; 0° C., 30 min, 33% methanol; read-out: ED50 Fragment reaction S. cerevisiae. The method, then: as §1, §3, §2
Setting [5] is: female mice, ip daily x9, optimal dose mg/kg: sparsomycin 0.25, n-octyl 12.0, benzyl 10.0, 2a 2.5, 2e 13.3.
The mark [6] stands for this setting: female mice, ip daily x9, dose mg/kg: sparsomycin 0.25, n-octyl 12.0, benzyl 10.0, 2a 2.5, 2e 13.3.
Where [7] appears, read: male mice, ip daily x9, optimal dose mg/kg: sparsomycin 0.125, n-octyl 20.0, benzyl 4.0, 2a 1.7.
Where [8] appears, read: male mice, ip daily x9, dose mg/kg: sparsomycin 0.125, n-octyl 20.0, benzyl 4.0, 2a 1.7.

The structures appear in SMILES notation. Like-named read-outs stand apart in the source and are kept apart here.

Description for Leukemia L 1210 cells: The in vitro clonogenic assay was effected in Leukemia L 1210 cells in soft agar medium (0.3%). […] In the analysis, the inhibition of the L 1210 colony formation by sparsomycin and derivatives thereof is determined for various concentrations, and the dose giving 50% inhibition of the colony formation, as compared with non-treated control cells is calculated (ID50).
From a suspension culture one hundred L 1210 cells are plated out in 35 mm culture dishes (Falcon) containing 1 ml soft agar culture medium and the compound to be investigated in suitable concentrations. The soft agar culture medium consists of Dulbecco's medium supplemented with 20% horse serum, 60 μmole 2-mercaptoethanol, 20 mg/ml L-asparagine, 75 mg/ml DEAE dextran (molecular weight 2×10^6) and 0.3% bacto agar (Difco). The culture dishes were incubated at 37° C. in an atmosphere of 10% CO2 in humidified air for 3 days. After this period of continuous exposure to the medicament the colonies were counted and dose-effect curves made. From these curves, the medicament dose is calculated which causes 50% inhibition of the colony formation as compared with non-treated control cells.

For the compound `CSC[S@+]([O-])C[C@H](C)NC(=O)/C=C/c1c(C)[nH]c(=O)[nH]c1=O` [2a, (Sc Rs)-1-(methylthiomethyl)sulfinyl-2-[β-(6-methyl-5-uracilyl)acrylamido]-propane], the IC50 in the data set on Leukemia L 1210 cells came to 0.1 µM; in data set [1], 0.9 µM; with E. coli MRE600 (Escherichia coli, MRE600, 4 h, read-out: Growth inhibition E. coli MRE600 ED50), 5.6 µM; in data set [2] it was 7.5 µM; in data set [3] it was 4.7 µM; in data set [4], 5.7 µM. Further, in “acute toxicity LD50” (compared with sparsomycin, LD50 i.p. in mice), the “times less toxic than sparsomycin (LD50 ratio)” value is on record as “about 9 ×”. Besides, the LD50 in the data set “acute toxicity LD50” is 2.33 mg/kg. Further, the “T/C (survival, treatment/control x 100%)” value was found to be 184% with L1210 leukemia (setting [5]) and 248% in the data set on L1210 leukemia (setting [7]). Moreover, the figures for the “cures (survivors in groups of 6 mice)” value with L1210 leukemia (setting [6]) and in the data set on L1210 leukemia (setting [8]) were 0/6 and 2/6, respectively. For the same compound, the “weight loss (T - C)” value in the data set with L1210 leukemia (setting [6]) is reported as -1.4 g; with L1210 leukemia (male mice, ip daily x9 from 24 h after implant, dose mg/kg: sparsomycin 0.125, n-octyl 20.0, benzyl 4.0, 2a 1.7), -2.0 g.

In the case of `CSC[S@+]([O-])C[C@H](CO)NC(=O)/C=C/c1c(C)[nH]c(=O)[nH]c1=O` [Sparsomycin], the IC50 in the data set with Leukemia L 1210 cells (soft agar 0.3%, 3 days continuous exposure, vs non-treated control cells) is 0.4 µM; in data set [1], 0.1 µM; in the data set on E. coli MRE600 (Escherichia coli, MRE600, 4 h; read-out: Growth inhibition E. coli MRE600 ED50), 11 µM; in data set [2] it was 5.2 µM; in data set [3] it was 3.2 µM; in data set [4], 2.8 µM. Moreover, in “acute toxicity LD50”, the LD50 was found to be 0.26 mg/kg. Also, the “T/C (survival, treatment/control x 100%)” value with L1210 leukemia (setting [5]) was determined as 121%; in the data set on L1210 leukemia (setting [7]), 105%. Moreover, the “cures (survivors in groups of 6 mice)” value with L1210 leukemia (setting [6]) and with L1210 leukemia (setting [8]) was 0/6 each time. Also, in the data set on L1210 leukemia (mouse, in vivo, ip), the “weight loss (T - C)” value is reported as -1.1 g.
